47 compounds from patent US8431376B2, “Bacterial replication systems and methods” (priority 2004, dated 2013) can be followed below.

pIC50: −log10 of the molar value.

Holding throughout (type): biochemical
In experiment [1] the target is S. pyogenes DNA polymerase holoenzyme (PolC, tau-complex, β) (Streptococcus pyogenes, UniProt Q8NZB5). The conditions noted are these: read-out: IC50 S. pyog.
In experiment [2] the target is Y. pestis DNA polymerase III holoenzyme (Yersinia pestis, UniProt Q0WHY6). The conditions noted are these: read-out: IC50 Y. pestis.
Experiment [3] deals with Y. pestis DNA polymerase III holoenzyme.
For a further experiment, the target named is Pol III holoenzyme. The conditions noted are these: read-out: low μM activity as Pol III holoenzyme inhibitor.

Sequence of S. pyogenes DNA polymerase holoenzyme (PolC, tau-complex, β) (Q8NZB5 whole entry): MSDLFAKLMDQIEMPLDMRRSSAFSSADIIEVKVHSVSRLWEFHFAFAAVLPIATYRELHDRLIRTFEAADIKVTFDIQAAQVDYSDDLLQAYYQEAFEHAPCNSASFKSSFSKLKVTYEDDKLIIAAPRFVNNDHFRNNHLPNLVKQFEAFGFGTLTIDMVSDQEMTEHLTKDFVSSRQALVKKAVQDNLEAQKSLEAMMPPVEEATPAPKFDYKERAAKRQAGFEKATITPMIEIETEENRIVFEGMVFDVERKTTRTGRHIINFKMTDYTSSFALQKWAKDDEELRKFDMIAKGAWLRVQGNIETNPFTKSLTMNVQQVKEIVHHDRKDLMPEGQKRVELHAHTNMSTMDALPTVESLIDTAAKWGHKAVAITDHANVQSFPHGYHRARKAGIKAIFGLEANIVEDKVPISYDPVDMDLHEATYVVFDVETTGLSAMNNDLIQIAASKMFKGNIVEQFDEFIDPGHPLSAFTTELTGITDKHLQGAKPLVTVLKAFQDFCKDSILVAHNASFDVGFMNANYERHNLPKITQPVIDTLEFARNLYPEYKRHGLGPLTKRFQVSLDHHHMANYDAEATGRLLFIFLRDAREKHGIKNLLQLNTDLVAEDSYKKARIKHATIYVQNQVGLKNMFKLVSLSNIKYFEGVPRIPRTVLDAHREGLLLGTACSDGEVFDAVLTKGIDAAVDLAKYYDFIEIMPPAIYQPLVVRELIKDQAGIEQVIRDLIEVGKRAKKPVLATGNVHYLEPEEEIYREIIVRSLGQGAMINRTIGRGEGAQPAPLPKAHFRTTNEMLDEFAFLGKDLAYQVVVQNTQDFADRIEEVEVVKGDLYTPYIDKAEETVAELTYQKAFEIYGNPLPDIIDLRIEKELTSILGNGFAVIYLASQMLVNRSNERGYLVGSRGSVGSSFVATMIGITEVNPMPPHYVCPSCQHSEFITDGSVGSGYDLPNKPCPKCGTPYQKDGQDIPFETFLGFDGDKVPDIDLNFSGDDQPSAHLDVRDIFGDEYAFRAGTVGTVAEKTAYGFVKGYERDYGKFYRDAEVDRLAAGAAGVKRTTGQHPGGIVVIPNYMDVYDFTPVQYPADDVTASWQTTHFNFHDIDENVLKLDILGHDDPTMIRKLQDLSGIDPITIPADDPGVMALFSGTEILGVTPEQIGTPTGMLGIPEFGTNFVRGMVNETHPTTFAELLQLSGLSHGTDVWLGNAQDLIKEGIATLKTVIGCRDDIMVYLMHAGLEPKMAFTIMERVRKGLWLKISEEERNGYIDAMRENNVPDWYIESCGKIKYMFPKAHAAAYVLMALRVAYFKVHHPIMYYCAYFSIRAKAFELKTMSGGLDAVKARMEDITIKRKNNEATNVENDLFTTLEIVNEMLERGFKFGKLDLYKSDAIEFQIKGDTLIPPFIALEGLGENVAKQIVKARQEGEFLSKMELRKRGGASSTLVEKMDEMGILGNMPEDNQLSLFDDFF
Sequence of S. pyogenes DNA polymerase holoenzyme (PolC, tau-complex, β) (Q7DAL6 1-556 partner): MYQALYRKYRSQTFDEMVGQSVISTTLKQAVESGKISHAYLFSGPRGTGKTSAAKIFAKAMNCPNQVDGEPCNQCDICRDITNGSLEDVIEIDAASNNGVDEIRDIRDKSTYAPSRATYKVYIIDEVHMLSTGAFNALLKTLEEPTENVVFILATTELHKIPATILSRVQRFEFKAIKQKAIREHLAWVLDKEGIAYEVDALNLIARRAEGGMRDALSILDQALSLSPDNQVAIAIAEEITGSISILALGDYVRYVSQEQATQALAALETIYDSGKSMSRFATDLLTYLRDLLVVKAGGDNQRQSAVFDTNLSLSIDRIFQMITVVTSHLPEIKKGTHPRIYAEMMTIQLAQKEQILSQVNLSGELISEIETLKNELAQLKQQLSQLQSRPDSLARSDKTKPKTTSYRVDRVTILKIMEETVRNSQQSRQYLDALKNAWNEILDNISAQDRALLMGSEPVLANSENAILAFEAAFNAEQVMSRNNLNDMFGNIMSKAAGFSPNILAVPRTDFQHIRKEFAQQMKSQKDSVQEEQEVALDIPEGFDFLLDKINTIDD
Sequence of S. pyogenes DNA polymerase holoenzyme (PolC, tau-complex, β) (Q7DAL5 1-346 partner): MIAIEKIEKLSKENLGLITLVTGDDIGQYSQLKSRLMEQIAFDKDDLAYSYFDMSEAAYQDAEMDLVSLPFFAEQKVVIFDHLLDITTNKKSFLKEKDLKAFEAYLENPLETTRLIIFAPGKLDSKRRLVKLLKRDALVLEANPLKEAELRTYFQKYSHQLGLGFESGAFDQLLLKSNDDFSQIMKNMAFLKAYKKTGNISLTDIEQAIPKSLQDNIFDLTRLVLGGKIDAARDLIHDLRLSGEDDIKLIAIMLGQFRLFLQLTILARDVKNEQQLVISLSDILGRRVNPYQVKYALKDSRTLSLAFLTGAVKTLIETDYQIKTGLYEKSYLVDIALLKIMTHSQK
Sequence of S. pyogenes DNA polymerase holoenzyme (PolC, tau-complex, β) (Q9A209 1-378 partner): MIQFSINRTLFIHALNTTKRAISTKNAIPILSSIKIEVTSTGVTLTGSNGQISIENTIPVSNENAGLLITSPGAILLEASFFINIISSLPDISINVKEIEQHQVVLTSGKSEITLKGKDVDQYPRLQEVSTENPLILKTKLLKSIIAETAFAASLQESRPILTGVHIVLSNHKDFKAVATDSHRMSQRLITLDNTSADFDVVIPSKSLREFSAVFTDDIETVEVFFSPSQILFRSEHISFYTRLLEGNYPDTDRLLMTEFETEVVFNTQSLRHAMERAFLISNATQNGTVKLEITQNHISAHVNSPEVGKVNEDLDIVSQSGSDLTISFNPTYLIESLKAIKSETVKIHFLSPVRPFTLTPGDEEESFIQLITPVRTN

One may read the pIC50 as the IC50 on a negative log10 scale, so that one unit is a factor of ten. With `COc1c(Br)cc(Br)cc1/C=C1\SC(=S)NC1=O`, the pIC50 in experiment [1] was 4.74; in experiment [2] it was 4.50.

On to `CCOc1c(Br)cc(Br)cc1/C=C1\SC(=S)NC1=O`, for which the values for the pIC50 in experiment [1] and in experiment [2] were 4.87 and 4.65, respectively.

As for `CC(C)Oc1c(Br)cc(Br)cc1/C=C1\SC(=S)NC1=O`, the pIC50 in experiment [1] is 5.15; in experiment [2], 4.73.

Consider `O=C1NC(=S)S/C1=C\c1cc(Br)cc(Br)c1O`, for which the negative-log IC50 (pIC50) in experiment [1] and in experiment [2] was less than 3.49 each time.

Consider `O=C1NC(=S)S/C1=C\c1cc(Br)cc(Br)c1`, for which the pIC50 was 4.85 in experiment [1] and 4.66 in experiment [2].

`C/N=C1\NC(=O)/C(=C/c2cc(Br)cc(Br)c2OC)S1`: the pIC50 in experiment [1] and in experiment [2] was less than 3.49 throughout.

Consider `O=C1NC(=S)S/C1=C\c1cc(Br)ccc1F`, for which the pIC50 in experiment [1] was 4.19; in experiment [2], 4.02.

Consider `O=C1NC(=S)S/C1=C\c1ccc(Br)cc1F`, for which the negative logarithm of the IC50 (pIC50) in experiment [1] was 4.22; in experiment [2], 4.55.

Turning to `O=C1NC(=S)S/C1=C\c1cc(F)c(F)cc1F`, the values for the pIC50 in experiment [1] and in experiment [2] were 3.92 and 3.69, respectively.

For the compound `O=C1NC(=S)S/C1=C\c1cccc(Cl)c1F`, the pIC50 was 4.10 in experiment [1] and 3.91 in experiment [2].

Regarding `COc1cccc(/C=C2\SC(=S)NC2=O)c1F`, the pIC50 in experiment [1] was 3.56; in experiment [2], 4.27.

`COc1cccc(OC)c1/C=C1\SC(=S)NC1=O`: the values for the pIC50 in experiment [1] and in experiment [2] were less than 3.49 and 3.73, respectively.

With `Cc1cccc(C)c1/C=C1\SC(=S)NC1=O`, the pIC50 was 3.57 in experiment [1] and 3.52 in experiment [2].

With `O=C1NC(=S)S/C1=C\c1c(Cl)cccc1Cl`, the pIC50 in experiment [1] is 3.99; in experiment [2], 3.79.

As for `O=C1NC(=S)S/C1=C\c1cc([N+](=O)[O-])ccc1Sc1ccc(Cl)cc1`, the pIC50 was 5.45 in experiment [1] and 5.34 in experiment [2].

On to `CC(C)(C)c1ccc(Oc2ccc([N+](=O)[O-])cc2/C=C2\SC(=S)NC2=O)cc1`, for which the pIC50 was 5.36 in experiment [1] and 5.15 in experiment [2].

In the case of `O=C1NC(=S)S/C1=C\c1cc([N+](=O)[O-])ccc1OC(F)F`, the pIC50 was 4.02 in experiment [1] and 4.28 in experiment [2].

For `O=C1NC(=S)S/C1=C\c1cc([N+](=O)[O-])ccc1SC1CCCCC1`, the pIC50 is 5.06 in experiment [1] and 5.00 in experiment [2].

With `COc1ccc([N+](=O)[O-])cc1/C=C1\SC(=S)NC1=O`, the pIC50 is 4.05 in experiment [1] and 3.90 in experiment [2].

For `COc1ccc(/C=C2\SC(=S)NC2=O)cc1[N+](=O)[O-]`, the results for the pIC50 in experiment [1] and in experiment [2] were less than 3.49 and 4.31, respectively.

On to `O=C1NC(=S)S/C1=C\c1ccc(N2CCOCC2)c([N+](=O)[O-])c1`, for which the pIC50 in experiment [1] and in experiment [2] was less than 3.49 throughout.

`O=C1NC(=S)S/C1=C\c1ccc(Cl)cc1[N+](=O)[O-]`: the values for the pIC50 in experiment [1] and in experiment [2] were 3.88 and 4.19, respectively.

With `O=C1NC(=S)S/C1=C\c1cc(Cl)ccc1[N+](=O)[O-]`, the figures for the negative-log IC50 (pIC50) in experiment [1] and in experiment [2] were 3.79 and 3.57, respectively.

For the compound `COc1cccc(F)c1/C=C1\SC(=S)NC1=O`, the negative logarithm of the IC50 (pIC50) was less than 3.49 in experiment [1] and 3.71 in experiment [3].

Turning to `COc1ccc(F)c(/C=C2\SC(=S)NC2=O)c1`, the figures for the pIC50 in experiment [1] and in experiment [2] were 3.71 and 3.75, respectively.

As for `O=C1NC(=S)S/C1=C\c1ccc(F)c(F)c1`, the pIC50 is 3.74 in experiment [1] and 3.62 in experiment [2].

As to `O=C1NC(=S)S/C1=C\c1cc(F)ccc1F`, in experiment [1], the negative-log IC50 (pIC50) is 3.68.

As to `O=C1NC(=S)S/C1=C\c1c(F)cccc1F`, the pIC50 in experiment [1] was less than 3.49; in experiment [2], 3.71.

With `O=C1NC(=S)S/C1=C\c1cccc(F)c1F`, the pIC50 in experiment [1] and in experiment [2] was 3.67 in each case.

Turning to `O=C1NC(=S)S/C1=C\c1ccc(F)cc1F`, the pIC50 is 3.54 in experiment [1] and 3.50 in experiment [2].

As to `O=C1NC(=S)S/C1=C\c1cc(C(F)(F)F)ccc1F`, the pIC50 was 4.35 in experiment [1] and 3.96 in experiment [2].

Regarding `O=C1NC(=S)S/C1=C\c1cccc(C(F)(F)F)c1F`, the pIC50 in experiment [1] was 4.17; in experiment [2], 3.78.

For `COc1cc(F)c(/C=C2\SC(=S)NC2=O)cc1OC`, the pIC50 in experiment [1] and in experiment [2] was less than 3.49 throughout.

Consider `C/N=C1\NC(=O)/C(=C/c2ccc(Cl)c(Cl)c2)S1`, for which the pIC50 in experiment [1] is 3.95; in experiment [2] it was 3.54.

Regarding `N=C1NC(=O)/C(=C/c2ccc(Cl)c(Cl)c2)S1`, the pIC50 was 3.84 in experiment [1] and 3.94 in experiment [2].

As for `O=C1NC(=S)S/C1=C\c1cc([N+](=O)[O-])ccc1N1CCCCC1`, the results for the pIC50 in experiment [1] and in experiment [2] were 4.62 and 4.38, respectively.

With `O=C1NC(=S)S/C1=C\c1cc([N+](=O)[O-])ccc1N1CCOCC1`, the negative logarithm of the IC50 (pIC50) in experiment [1] is 3.72; in experiment [2], 3.97.

For the compound `O=C1NC(=S)S/C1=C\c1cc([N+](=O)[O-])ccc1F`, the pIC50 in experiment [1] is 4.05; in experiment [2] it was 3.99.

As to `O=C1NC(=S)S/C1=C\c1cc([N+](=O)[O-])ccc1Cl`, the pIC50 in experiment [1] is 4.09; in experiment [2], 4.05.

In the case of `O=C1NC(=S)S/C1=C\c1ccc(Cl)c([N+](=O)[O-])c1`, the pIC50 in experiment [1] was 4.62; in experiment [2], 4.57.

As to `O=C1NC(=S)S/C1=C\c1cc2c(cc1[N+](=O)[O-])OCO2`, the pIC50 was 4.01 in experiment [1] and 3.84 in experiment [2].

On to `COc1cc(/C=C2\SC(=S)NC2=O)c([N+](=O)[O-])cc1OC`, for which the negative logarithm of the IC50 (pIC50) in experiment [1] and in experiment [2] was less than 3.49 each time.

With `CN(C)c1ccc(/C=C2\SC(=S)NC2=O)c([NH+]([O-])O)c1` (stereo not shown), the pIC50 was 4.35 in experiment [1] and 4.65 in experiment [2].

For `O=C1NC(=S)S/C1=C\c1ccc([N+](=O)[O-])c(O)c1`, the pIC50 in experiment [2] is 3.79.

Regarding `O=C1NC(=S)SC1=Cc1cc([N+](=O)[O-])ccc1Sc1ccc(Cl)cc1` [5-[2-(4-Chloro-phenylsulfanyl)-5-nitro-benzylidene]-2-thioxo-thiazolidin-4-one], the IC50 at Pol III holoenzyme lay within 3 to 7 µM.

In the case of `O=C1NC(=S)S/C1=C\c1ccc(Cl)c(Cl)c1` [drawing 34], the pIC50 is 4.43 in experiment [1] and 4.21 in experiment [2].

Consider `O=C1NC(=S)S/C1=C\c1ccc(Cl)c(Cl)c1` [drawing 37], for which the pIC50 in experiment [1] and in experiment [2] was less than 3.49 throughout.
